Results published in patent US20230248814A1, “COMPOSITIONS AND METHODS FOR TREATING MERKEL CELL CARCINOMA (MCC) USING HLA CLASS I SPECIFIC EPITOPES” (The Broad Institute, Inc., priority 2020, published 2023).
Entries after “also recorded” stand apart in the source; their conditions may differ.

Experiments:
MCC-301 cell line = test: Flow cytometry assessment of HLA-DR expression after IFN-γ; type: cell-based, human
Method: (§1) Flow cytometry. Cells were dissociated with Versene and incubated with 5 µL Human TruStain FcX (Fc Receptor Blocking Solution; Biolegend # 422302) per million cells in 100 µL at room temperature for 10 min. Fluorophore-conjugated antibodies or respective isotype controls were added and incubated for another 30 min at 4° C. Cells were then washed once with PBS and resuspended in PBS or 4% paraformaldehyde and analyzed on an LSR Fortessa cytometer. For HLA-I and HLA-II detection, the following antibodies were used: HLA-ABC (W6/32 clone) conjugated to PE (BioLegend # 311406), APC (BioLegend # 311410), or AF647 (Santa Cruz Biotechnology # sc32235 AF647), and HLA-DR-FITC (BioLegend # 307604).

MCC lines [1] = test: Flow cytometry for HLA-I surface expression in MCC lines after interferon treatment; type: cell-based, human
Method: as §1

MCC cell lines = test: HLA-I immunopeptidome (LC-MS/MS) of MCC cell lines at baseline and after IFN-γ; type: cell-based, human; conditions: for increase in abundance of class I bound peptides (median): IFN-γ stimulation
Method: Immunoprecipitation and mass spectrometry analysis, and peptide identification. Up to 40 million or 0.2 g of MCC cells were immunoprecipitated. Briefly, MCC cells were harvested and lysed in ice-cold lysis buffer containing […] (pH 8.0), 1 mM EDTA (pH 8.0), 0.1 M sodium chloride, Triton X-100, 0.06 M octyl β-d-glucopyranoside, 100 U/mL DNAse I, 1 mM phenylmethanesulfonyl fluoride (all from Sigma Aldrich), and protease inhibitor cocktail (Roche Diagnostics). Cell lysate was centrifuged at 12,700 rpm at 4° C. for 22 min. Lysate supernatant was coupled with Gammabind Plus sepharose beads (GE Healthcare) and incubated with 10 µg of HLA-I antibody (Clone W6/32, Santa Cruz Biotechnologies) at 4° C. under rotary agitation for 3 h. After incubation, the lysate-bead-antibody mixture was briefly centrifuged and the supernatant was discarded. Beads were washed with lysis buffer, consisting of wash buffer containing 40 mM Tris (pH 8.0), 1 mM EDTA (pH 8.0), 0.1 M sodium chloride, 0.06 M octyl β-d-glucopyranoside, and 20 mM Tris buffer, without protease inhibitors. Gel loading tips (Fisherbrand) were used to remove as much fluid from beads as possible. Peptides of up to three immunoprecipitations were combined, acid eluted, and analyzed using LC/MS-MS as described previously (35, 82). Briefly, peptides were resuspended in 3% acetonitrile with 5% formic acid and loaded onto an analytical column (20-30 cm with 1.9 µm C18 Reprosil beads, Dr. Maisch HPLC GmbH);, packed in-house). Peptides were eluted in a 6-30% gradient (EasyLC 1000 or 1200, Thermo Fisher Scientific) and analyzed on a QExactive Plus, Fusion Lumos, or Orbitrap Exploris 480 (Thermo Fisher Scientific). For Lumos measurements, peptides were also subjected to fragmentation if they were singly charged. […] Fractions were analyzed on a Fusion Lumos or Orbitrap Exploris 480 equipped with a FAIMSpro interface (83).
Mass spectra were interpreted using Spectrum Mill software package v7.1 pre-Release (Broad Institute, Cambridge, MA). […] MS/MS spectra were searched against a protein sequence database that contained 90,904 entries, including all UCSC Genome Browser genes with hg19 annotation of the genome and its protein coding transcripts (52,788 entries), common human virus sequences (30,181 entries), recurrently mutated proteins observed in tumors from 26 tissues (4,595 entries), 264 common laboratory contaminants as well as protein sequences containing somatic mutations detected in MCC cell lines (3,076 entries). […]

MCC lines [2] = test: RNA-seq of class I antigen presentation genes in MCC lines before and after IFN-γ; type: cell-based, human; conditions: IFN-γ treatment vs baseline
Method: RNA sequencing and analysis. For samples from the MCC tumors and newly generated cell lines, RNA was first assessed for quality using the Agilent Bioanalyzer (DV200 metric). 100 ng of RNA were used as the input for first strand cDNA synthesis using Superscript III reverse transcriptase and Illumina’s TruSeq RNA Access Sample Prep Kit. Synthesis of the second strand of cDNA was followed by indexed adapter ligation with UMI (unique molecular index) adaptors. Subsequent PCR amplification enriched for adapted fragments. Amplified libraries were quantified, normalized, pooled, and hybridized with exome targeting oligos. Following hybridization, bead clean-up, elution, and PCR was performed to prepare library pools for sequencing on Illumina flowcell lanes. Transcriptomes were sequenced to a coverage of at least 50 million reads in pairs.
Gene counts were obtained from BAM files using featureCounts version 2.0.0 (74). Very lowly expressed genes with average count across samples less than 1 were excluded from analysis. […]
Differential expression analysis was carried out between IFN-γ plus and minus samples (adjusting for viral status as a covariate) using the negative binomial GLM Wald test of DESeq2, where significance was assessed using the p-values adjusted for multiple comparisons under default settings. […]

healthy human volunteers = conditions: one single s.c. administration; 8 subjects vs 4 placebo; cited from earlier work
[3] = tested on: ovarian carcinoma patients; conditions: poly-ICLC with NY-ESO-1 peptide vaccine and Montanide; cited from earlier work
[4] = tested on: advanced hormone refractory prostate cancer patients; conditions: personalized vaccination combined with low dose estramustine; cited from earlier work
USP7 = USP7 (Homo sapiens, UniProt Q93009); conditions: cited from earlier work
[5] = tested on: PBMCs from patient MCC-367; test: IFN-γ ELISpot with autologous PBMCs of patient MCC-367; type: cell-based, human; conditions: 10 ug/ml peptide
Method: ELISpot. Matching patient peripheral blood mononuclear cells (PBMCs) from patient MCC-367 were thawed, and 10^7 cells per well were seeded in 24 well plates overnight. Cells were stimulated with 10 ug/ml of the LT antigen peptide […] (SEQ ID NO:1) (identified in the MCC-367 HLA peptidome, FIG. 3F) in complete DMEM supplemented with 10% Human serum and 20 ng/ml IL-7 (PeproTech). After 3 days of stimulation, cells were supplemented with 20 units/mL IL-2 (PeproTech). After 10 days of stimulation, cells were cytokine deprived overnight. 50,000 cells per well were stimulated in an IFN- γ ELISpot assay with 10 ug/ml of the […] (SEQ ID NO:1) peptide. DMSO and an HIV-GAG peptide were used as negative controls. CEF (Mabtech) and PHA (Sigma Aldrich) were used as positive controls (not shown). ELISpot and T cell culture methods were described in detail previously (23, 86).

[6] = IFN-γ, 8 IFN-γ-inducible MCC lines

Chain of USP7 (Q93009 whole entry): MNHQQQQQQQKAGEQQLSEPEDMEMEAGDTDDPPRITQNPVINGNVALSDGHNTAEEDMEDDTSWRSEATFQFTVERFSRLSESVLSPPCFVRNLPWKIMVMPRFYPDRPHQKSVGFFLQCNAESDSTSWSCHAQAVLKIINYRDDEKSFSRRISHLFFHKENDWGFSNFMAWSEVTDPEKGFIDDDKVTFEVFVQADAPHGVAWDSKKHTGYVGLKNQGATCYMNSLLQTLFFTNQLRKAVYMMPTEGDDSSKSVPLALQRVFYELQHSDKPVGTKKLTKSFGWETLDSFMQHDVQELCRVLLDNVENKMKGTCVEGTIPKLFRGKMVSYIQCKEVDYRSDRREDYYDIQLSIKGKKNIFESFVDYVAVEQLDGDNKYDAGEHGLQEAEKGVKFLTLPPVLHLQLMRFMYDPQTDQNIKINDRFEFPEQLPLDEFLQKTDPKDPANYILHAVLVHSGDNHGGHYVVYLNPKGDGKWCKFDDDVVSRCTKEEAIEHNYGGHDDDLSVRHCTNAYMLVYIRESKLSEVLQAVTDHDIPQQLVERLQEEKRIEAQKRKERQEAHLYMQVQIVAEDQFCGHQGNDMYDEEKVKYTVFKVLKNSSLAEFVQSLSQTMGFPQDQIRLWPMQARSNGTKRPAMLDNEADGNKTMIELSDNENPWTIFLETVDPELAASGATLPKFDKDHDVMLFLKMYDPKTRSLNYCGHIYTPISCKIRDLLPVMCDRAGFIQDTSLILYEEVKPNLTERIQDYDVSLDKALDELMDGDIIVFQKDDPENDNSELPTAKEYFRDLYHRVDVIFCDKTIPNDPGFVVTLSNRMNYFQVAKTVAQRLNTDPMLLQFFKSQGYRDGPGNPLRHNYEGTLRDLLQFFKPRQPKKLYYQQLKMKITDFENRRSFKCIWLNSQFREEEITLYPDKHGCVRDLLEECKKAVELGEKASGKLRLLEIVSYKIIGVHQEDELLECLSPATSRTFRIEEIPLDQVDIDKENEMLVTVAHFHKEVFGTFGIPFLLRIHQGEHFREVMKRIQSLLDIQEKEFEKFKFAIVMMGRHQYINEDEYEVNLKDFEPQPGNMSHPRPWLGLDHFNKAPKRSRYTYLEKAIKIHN

Compound: IFN-γ: known inducer of HLA-I
- HLA-DR expression (MCC-301 cell line): inducible HLA-DR expression; also recorded: upregulated HLA-DR expression
- HLA-I fold increase in MFI (MCC lines [1]; IFN-γ exposure, MCC-336, -350, -358): ≤ 1.15 fold
- HLA I surface expression, fold increase by MFI (median) (MCC lines [1]; [6]): 5.7 fold
- HLA I surface expression, fold increase by MFI (range) (MCC lines [1]; [6]): 2.5 - 12.4 fold
- response of HLA I surface expression to IFN-γ exposure (MCC lines [1]; MCC-336, -350, -358): not responsive
- increase in abundance of class I bound peptides (median) (MCC cell lines; across 4 cell lines): 25 fold
- increase in abundance of class I bound peptides (median) (MCC cell lines; across 7 cell lines, comparable input material): 12 fold
- change in frequencies of peptides mapping to each HLA allele (MCC cell lines; cell lines with vs without IFN-γ): increase in HLA-B-presented peptides
- class I gene expression (RNA-seq) (MCC lines [2]): markedly upregulated class I genes; also recorded: markedly upregulated class I gene transcripts

Compound: Polyinosinic-Polycytidylic Acid-poly-L-lysine Carboxymethylcellulose [poly-ICLC]
- differentially expressed genes versus placebo (healthy human volunteers): up to 212 genes
- patients with induction of CD4+ and CD8+ T cell and antibody responses to the peptide [3]: > 90%

Compound: C[C@]12CC[C@@H]3c4ccc(OC(=O)N(CCCl)CCCl)cc4CC[C@H]3[C@@H]1CC[C@@H]2O [estramustine]
- patients with >50% decrease in serum PSA [4]: 54%

Compound: CN1CCN(CCC(=O)Nc2ccc3c(=O)n(CC4(O)CCN(C(=O)[C@H](CCCNC(=O)c5ccc6c(Cl)c7c(nc6c5)CCCC7)Cc5ccccc5)CC4)cnc3c2)CC1 [XL177B]
- on-target activity (USP7): on-target activity at higher doses
- potency relative to XL177A (fold less potent) (USP7): 500 fold

Compound: TSDKAIELY
- detection of the epitope in the HLA-I peptidome (MCC cell lines; MCC-367 line, baseline vs IFN-γ): detected only after IFN-γ treatment and not at baseline
- reactivity of autologous T cells (IFN-γ ELISpot) [5]: confirmed reactivity
